In PMC8521408 (Journal of Antimicrobial Chemotherapy, 2021):
Like-named read-outs stand apart in the source and are kept apart here.

Key:
[1] = for Cumulative AUC: mean ± SD, SD
[2] = Other clinical endpoints during ICU stay
[3] = for Covariate effect, CRGT on CL: exponent of (CRGT/83) on CL
[4] = New-onset AKI during vancomycin treatment
[5] = final model estimate, scaled to 70 kg TBW, critically ill ICU patients
[6] = median of bootstrap of final model (1000 samples)

Which “median AUC0–24” value ([1]; CD group, fixed first dose 1000 mg (N = 39 courses)) does the source give for `CN[C@H](CC(C)C)C(=O)N[C@H]1C(=O)N[C@@H](CC(N)=O)C(=O)N[C@H]2C(=O)N[C@H]3C(=O)N[C@H](C(=O)N[C@H](C(=O)O)c4cc(O)cc(O)c4-c4cc3ccc4O)[C@H](O)c3ccc(c(Cl)c3)Oc3cc2cc(c3O[C@@H]2O[C@H](CO)[C@@H](O)[C@H](O)[C@H]2O[C@H]2C[C@](C)(N)[C@H](O)[C@H](C)O2)Oc2ccc(cc2Cl)[C@H]1O` [vancomycin] here?
The value was 401 µg·h/mL.

And the “percentage of courses achieving AUC0–24 ≥400 mg·h/L” value ([1]; CD group, fixed first dose 1000 mg (N = 39 courses), assuming MIC = 1 mg/L)?
The value was 53.8%.

And the “median AUC0–24” value ([1]; LD group, 25 mg/kg loading dose (N = 50 courses))?
Its value is 602 µg·h/mL.

What about the “Cumulative AUC” value ([1]; all episodes included for model building (N = 104)) of the same molecule?
Its value is 1937 ± 1448 µg·h/mL.

What about the “percentage of courses with AUC0–24 > 600 mg·h/L” value ([1]; courses with a loading dose, 26/50) of the same molecule?
Its value is 52%.

What about the “Cumulative AUC” value ([1]; episodes with 25 mg/kg loading dose, LD group (N = 50)) of the same molecule?
Its value is 2027 ± 1543 µg·h/mL.

What about the “Cumulative AUC” value ([1]; episodes without loading dose, CD group, first dose 1000 mg (N = 39)) of the same molecule?
The value was 1849 ± 1359 µg·h/mL.

And the “percentage of patients still on CVVH or other RRT at ICU discharge” value ([2]; CD group)?
The value was 21.2%.

What about the “percentage of patients with AKI at ICU discharge” value ([2]; CD group) of the same molecule?
Its value is 30.3%.

What about the “percentage of patients with AKI using the maximum RIFLE score during the complete ICU stay” value ([2]; CD group) of the same molecule?
Its value is 59.4%.

What about the “mean AKI duration” value ([2]; CD group, fixed first dose 1000 mg) of the same molecule?
Its value is 75.2 h.

And the “percentage of patients still on CVVH or other RRT at ICU discharge” value ([2]; LD group)?
The value was 31.7%.

And the “percentage of patients with AKI at ICU discharge” value ([2]; LD group)?
Its value is 34.1%.

And the “percentage of patients with AKI using the maximum RIFLE score during the complete ICU stay” value ([2]; LD group)?
The value was 57.5%.

And the “mean AKI duration” value ([2]; LD group, 25 mg/kg loading dose)?
The value was 37.2 h.

What about the “Covariate effect, CRGT on CL” value ([3]; bootstrap median) of the same molecule?
The value was 0.63.

What about the “Covariate effect, CRGT on CL” value ([3]; final model estimate) of the same molecule?
The value was 0.65.

And the “V1, vancomycin central volume of distribution” value [3, 5]?
Its value is 13.4 L.

What about the “V2, vancomycin peripheral volume of distribution” value [3, 5] of the same molecule?
The value was 36.9 L.

What about the “CL, vancomycin clearance” value [3, 6] of the same molecule?
The value was 1.83 L/h.

What about the “V1, vancomycin central volume of distribution” value [3, 6] of the same molecule?
Its value is 13.1 L.

And the “V2, vancomycin peripheral volume of distribution” value [3, 6]?
The value was 35.7 L.

And the “incidence of new-onset AKI” value ([4]; AUC0–24 < 400 mg·h/L, 4/27, all three groups)?
The value was 14.8%.

And the “incidence of new-onset AKI” value ([4]; AUC0–24 below 600 mg·h/L, 17/69)?
The value was 24.6%.

And the “incidence of new-onset AKI” value ([4]; AUC0–24 ≥400 mg·h/L, 30/77, all three groups)?
Its value is 39.0%.

What about the “incidence of new-onset AKI” value ([4]; AUC0–24 ≥ 600 mg·h/L, 17/35) of the same molecule?
Its value is 48.6%.

And the “number needed to harm (new-onset AKI)” value ([4]; AUC0–24 ≥400 versus < 400 mg·h/L)?
Its value is 4.1.

What about the “percentage of patients with new-onset AKI” value ([4]; CD group, fixed first dose 1000 mg, 10/35 patients) of the same molecule?
Its value is 28.6%.

And the “percentage of patients with new-onset AKI” value ([4]; LD group, 25 mg/kg loading dose, 17/45 patients)?
The value was 37.8%.
